Data on five molecules can be found in patent US10073082B2, “Proteasome inhibition assay and methods of use” (UNIVERSITY HEALTH NETWORK, priority 2013, dated 2018).

What all share (assay type): cell-based, human
For experiment [1], the system named is IκB in peripheral blood monocytes. In words: Flow cytometry assay, whole blood pretreated with effector: LPS induced degradation of IκB in monocytes. Particulars: whole blood pretreated with compound, then LPS. The protocol: Whole blood samples from normal human donors were collected. 100 μL aliquots of the whole blood were inserted into the bottom of 12×75 mm tubes. In order to reduce the potential for contamination of the sample with unfixed cells, blood was removed from the side of the tubes with a cotton swab. 1-2 μL of a proteasome effector was added to a first portion of the tubes and these tubes were incubated for 2 hours at 37° C. in a water bath. In this example, the proteasome effector was Bortezomib or MG-132, both proteasome inhibitors. Following pretreatment with the proteasome effector, 2 μL of 50 mg/mL stock solution (100 ng) of an IκB degradation agonist was added to the tubes and the tubes were incubated from 1 minute to 60 minutes at 37° C. in a water bath. In this example, the agonist was lipopolysaccharide (LPS). A second portion of the tubes were treated with the IκB degradation agonist and no proteasome effector. […]
(§1) Following the above wash steps, the fixed and permeabilized cells were resuspended in 100 μL of cold Wash Buffer comprising antibodies to specific intracellular antigens (e.g., signaling targets including P-ERK, P-Akt, P-p38, P-SAPK, P-S6, and antibodies to IκB). […] The supernatant was aspirated and the cell pellet was resuspended in 350 μL of Resuspension Buffer (PerFix-P® kit) and analyzed on a flow cytometer (GALLIOS™) using a protocol with defined population gates and series of dual parameter histograms. A CD45-KO vs. SS dual parameter histogram was collected and a gate around the leukocyte population based on the CD45+ fluorescence and SS characteristics was drawn to exclude debris (CD45 negative events). […] The collected flow cytometric data was analyzed using KALUZA™ software.
(§2) Phosphorylation of signaling pathways activated by LPS, including ERK, Akt (activated by PI3 Kinase), and the ribosomal S6 protein (a marker of protein synthesis) were also monitored together with the degradation of IκB. […] The degradation of IκB in cells pretreated with MG-132 or GDC-0941 was monitored by flow cytometry as described in Example 1. […]
Background: Flow cytometry measures light scatter and fluorescence of single cells or particles in a stream.

Experiment [2] concerns P-ERK (P-Thr202/P-Tyr204) in peripheral blood monocytes. As to the kind of experiment: ERK phosphorylation in LPS activated monocytes from pretreated whole blood. The protocol:
(§3) Whole blood samples from normal human donors were collected. 100 μL aliquots of the whole blood were inserted into the bottom of 12×75 mm tubes. In order to reduce the potential for contamination of the sample with unfixed cells, blood was removed from the side of the tubes with a cotton swab. 1-2 μL of a proteasome effector was added to a first portion of the tubes and these tubes were incubated for 2 hours at 37° C. in a water bath. In this example, the proteasome effector was Bortezomib or MG-132, both proteasome inhibitors. Following pretreatment with the proteasome effector, 2 μL of […] stock solution (100 ng) of an IκB degradation agonist was added to the tubes and the tubes were incubated from 1 minute to 60 minutes at 37° C. in a water bath. In this example, the agonist was lipopolysaccharide (LPS). A second portion of the tubes were treated with the IκB degradation agonist and no proteasome effector. 2 μL of an IκB degradation agonist was added to these tubes and the tubes were incubated from 1 minute to 60 minutes as described above. For control tubes, 2 μL of phosphate buffered saline (PBS) was added to the tubes and the tubes were incubated as described above.
(§4) Following incubation, the cells were fixed and permeabilized with a PerFix-P® kit (Beckman Coulter, Inc., Brea. Calif.) according to the manufacturer's instructions. The fixed and permeabilized cells were then washed with 2 mL of Wash Buffer (PBS (w/o Ca++/Mg++) with 2% fetal bovine serum (FBS), sterile filtered (0.22 μm filter)) in the tubes and centrifuged at 500×g for 4 minutes. The cell pellet was resuspended in 2 mL of cold (4° C.) Wash Buffer, centrifuged at 500×g for 4 minutes, and the supernatant was aspirated.
Following the above wash steps, the fixed and permeabilized cells were resuspended in 100 μL of cold Wash Buffer comprising antibodies to specific intracellular antigens (e.g., signaling targets including P-ERK, P-Akt, P-p38, P-SAPK, P-S6, and antibodies to IκB). The antibodies were labeled with different fluorochromes (e.g. fluorophores) to facilitate their-individual measurement of the intracellular antigens. […] For example, anti-CD14 antibodies were included to specifically label monocytes, anti-CD3 antibodies or anti-CD19 antibodies were included to specifically label T or B-cells respectively, and/or anti-CD38/CD138 antibodies were included to specifically label plasma cells. The cells were incubated with the antibodies for 30 minutes at room temperature and then the cells were washed in 2 mL of cold Wash Buffer and centrifuged as described above. The supernatant was aspirated and the cell pellet was resuspended in 350 μL of Resuspension Buffer (PerFix-P® kit) and analyzed on a flow cytometer (GALLIOS™) using a protocol with defined population gates and series of dual parameter histograms. A CD45-KO vs. SS dual parameter histogram was collected and a gate around the leukocyte population based on the CD45+ fluorescence and SS characteristics was drawn to exclude debris (CD45 negative events). A minimum of 2,500 CD14+ events were collected. […] The collected flow cytometric data was analyzed using KALUZA™ software.
as §2

The subject of experiment [3] is P-Akt (P-Ser473) in peripheral blood monocytes. As to the kind of experiment: Akt phosphorylation in LPS activated monocytes from pretreated whole blood. Here is the method:
(§5) Whole blood samples from normal human donors were collected. 100 μL aliquots of the whole blood were inserted into the bottom of 12×75 mm tubes. In order to reduce the potential for contamination of the sample with unfixed cells, blood was removed from the side of the tubes with a cotton swab. 1-2 μL of a proteasome effector was added to a first portion of the tubes and these tubes were incubated for 2 hours at 37° C. in a water bath. In this example, the proteasome effector was Bortezomib or MG-132, both proteasome inhibitors. […]
as §1, with “software. […]” for “software.”

Experiment [4] relates to P-S6 (P-Ser235/P-Ser236) in peripheral blood monocytes. As to the kind of experiment: S6 phosphorylation in LPS activated monocytes from pretreated whole blood. The protocol:
as §5
as §1, with “software. […]” for “software.”

The test system of experiment [5] is peripheral blood monocytes. As to the kind of experiment: IκB degradation agonists in whole blood: IκB degradation and signaling pathway activation in monocytes. Particulars: for Pathways Activated: Target Cell Population: Monocytes. Here is the method:
as §3, §4
(§6) Following the above wash steps, the fixed and permeabilized cells were resuspended in 100 μL of cold Wash Buffer comprising antibodies to specific intracellular antigens (e.g., signaling targets including P-ERK, P-Akt, P-p38, P-SAPK, P-S6, and antibodies to IκB). The antibodies were labeled with different fluorochromes (e.g. fluorophores) to facilitate their-individual measurement of the intracellular antigens. In order to target specific cell populations in the assay, antibodies capable of differentiating cell populations within the blood sample were also included in some of the tubes. For example, anti-CD14 antibodies were included to specifically label monocytes, anti-CD3 antibodies or anti-CD19 antibodies were included to specifically label T or B-cells respectively, and/or anti-CD38/CD138 antibodies were included to specifically label plasma cells. The cells were incubated with the antibodies for 30 minutes at room temperature and then the cells were washed in 2 mL of cold Wash Buffer and centrifuged as described above. The supernatant was aspirated and the cell pellet was resuspended in 350 μL of Resuspension Buffer (PerFix-P® kit) and analyzed on a flow cytometer (GALLIOS™) using a protocol with defined population gates and series of dual parameter histograms. A CD45-KO vs. SS dual parameter histogram was collected and a gate around the leukocyte population based on the CD45+ fluorescence and SS characteristics was drawn to exclude debris (CD45 negative events). A minimum of 2,500 CD14+ events were collected. A stop count region was set from the CD14-PC7 vs. SS histogram gated on monocytes. Dual parameter histograms gated on the appropriate populations were created to measure the populations of interest. The collected flow cytometric data was analyzed using KALUZA™ software.
(§7) Phosphorylation of signaling pathways activated by TNF-α, including ERK, Akt, and the ribosomal S6 protein, was monitored together with the degradation of IκB in peripheral blood WBCs. Whole blood samples were treated, activated, and processed as described in Example 1 and the degradation of IκB in peripheral blood cells was monitored by flow cytometry as described in Example 1. The IκB degradation agonist used in this example was TNF-α. […]

Experiment [6] concerns peripheral blood lymphocytes. In words: IκB degradation agonists in whole blood: IκB degradation and signaling pathway activation in lymphocytes. As to conditions: for Pathways Activated: Target Cell Population: Lymphocytes (subpopulation); for Akt activation in lymphocytes / ERK activation in lymphocytes / degradation of IκB in lymphocytes / S6 activation in lymphocytes: agonist alone. Here is the method:
as §3, §4, §6, §7

The subject of the next experiment is granulocytes. As to the kind of experiment: IκB degradation agonists in whole blood: IκB degradation and signaling pathway activation in granulocytes. Particulars: Target Cell Population: Granulocytes. Here is the method:
as §3, §4
as §1, with “IκB). The antibodies were labeled with different fluorochromes (e.g. fluorophores) to facilitate their-individual measurement of the intracellular antigens.” for “IκB).”

Where [7] appears, read: pathway: P-ERK/MAP kinase (Ras > Raf).
Where [8] appears, read: pathway: Tpl-2 > ERK/MAP kinase.

Regarding `CS(=O)(=O)N1CCN(Cc2cc3nc(-c4cccc5[nH]ncc45)nc(N4CCOCC4)c3s2)CC1` [GDC-0941], the “effect on LPS induced degradation of IκB in monocytes” value in experiment [1] is “no effect”. For the same molecule, the “"early" (first) ERK phosphorylation peak” value in experiment [2] (LPS activated monocytes, 2-4 minutes) is given as “inhibited”. Also, in experiment [2] (LPS activated monocytes, about 10 minutes), the “"late" (second) ERK activation peak” value is reported as “unchanged”. Besides, the Akt activation entry in experiment [3] is given as “inhibited”. Moreover, the “activation of ribosomal S6 protein” value in experiment [4] is listed as “minimal impact”.

With `CCCCCCCCCCCCCC(=O)O[C@@H]1[C@@H](C)[C@@]2(O)[C@@H](C=C(CO)C[C@]3(O)C(=O)C(C)=C[C@@H]23)[C@@H]2C(C)(C)[C@]12OC(C)=O` [PMA], the “Pathways Activated” value is given as “(IκB is not degraded)” in experiment [5] (pathway: (IκB is not degraded)); “P-ERK/MAP kinase (Ras > Raf)” in experiment [5] (setting [7]); “IκB > NFκB (PKC?)” in experiment [6] (pathway: IκB > NFκB (PKC?)); “P-ERK/MAP kinase (Ras > Raf)” in experiment [6] (setting [7]); “P-S6 (P-ERK)” in experiment [6] (pathway: P-S6 (P-ERK)); “P-ERK/MAP kinase” in the experiment with granulocytes. Further, the “ERK activation in monocytes” value in experiment [5] (agonist alone) is listed as “activation of ERK”. In addition, the “degradation of IκB in monocytes” value in experiment [5] (agonist alone) is on record as “no degradation of IκB”. Besides, the “Akt activation in lymphocytes” value in experiment [6] is “not activated”. In experiment [6], the “ERK activation in lymphocytes” value is listed as “activation of ERK”. For the same molecule, the “degradation of IκB in lymphocytes” value in experiment [6] is reported as “stimulated the degradation of IκB”. Moreover, the “lymphocytes with both degradation of IκB and activation of ERK” value in experiment [6] (over the 15 min time course) is listed as “approximately 50%”.

As to `N#CC(=C(/N)Sc1ccccc1N)/C(C#N)=C(\N)Sc1ccccc1N` [U0126], the ERK activation result in experiment [2] (LPS stimulated monocytes, single late ERK peak 8-10 minutes, FIG. 19) is on record as “inhibited”.

For TNFα, the “Pathways Activated” value is “IκB > NFκB” in experiment [5] (pathway: IκB > NFκB); “PI3 kinase > Akt” in experiment [5] (pathway: PI3 kinase > Akt); “Tpl-2 > ERK/MAP kinase” in experiment [5] (setting [8]); “ERK/MAP kinase (Tpl-2)” in experiment [6] (pathway: ERK/MAP kinase (Tpl-2)); “IκB > NFκB” in experiment [6] (pathway: IκB > NFκB); “PI3 kinase > Akt” in experiment [6] (pathway: PI3 kinase > Akt). In the experiment with granulocytes, the “Pathways Activated” value was “P-p38 MAP kinase”. Also, in experiment [5] (agonist alone), the “Akt activation in monocytes” value is “Neither Akt nor S6 was activated”. In addition, in experiment [5] (agonist alone), the “ERK activation in monocytes” value was “activated”. In addition, in experiment [5] (agonist alone), the “S6 activation in monocytes” value was “Neither Akt nor S6 was activated”. Also, the “degradation of IκB in monocytes” value in experiment [5] (agonist alone) was “induced degradation of IκB”. The figures for the “time of peak loss of IκB after stimulation” value in experiment [5] (monocytes) and in experiment [6] (lymphocytes) were 10 min and 15 min, respectively. The “Akt activation in lymphocytes” value in experiment [6] is “Neither Akt nor S6 was activated”. For the same molecule, the “ERK activation in lymphocytes” value in experiment [6] was “no apparent response”. In addition, in experiment [6], the “S6 activation in lymphocytes” value was “Neither Akt nor S6 was activated”. Moreover, in experiment [6], the “degradation of IκB in lymphocytes” value is “induced degradation of IκB”.

B1: CD40L: IκB degradation agonist (protein, UniProt P29965 113-261, looked up)
CD40 ligand, soluble form: MQKGDQNPQIAAHVISEASSKTTSVLQWAEKGYYTMSNNLVTLENGKQLTVKRQGLYYIYAQVTFCSNREASSQAPFIASLCLKSPGRFERILLRAANTHSSAKPCGQQSIHLGGVFELQPGASVFVNVTDPSQVSHGTGFTSFGLLKL
With B1, the “Pathways Activated” value is “IκB > NFκB” in experiment [5] (pathway: IκB > NFκB); “P38 MAP kinase” in experiment [5] (pathway: P38 MAP kinase); “Tpl-2 > ERK/MAP kinase” in experiment [5] (setting [8]); “IκB > NFκB (Tpl-2)” in experiment [6] (pathway: IκB > NFκB (Tpl-2)); “PI3 kinase > Akt” in experiment [6] (pathway: PI3 kinase > Akt); “Tpl-2 > ERK/MAP kinase” in experiment [6] (setting [8]). Moreover, the “Akt activation in monocytes” value in experiment [5] (agonist alone) is given as “not activated”. In experiment [5] (agonist alone), the “ERK activation in monocytes” value was “low level of ERK activation”. The “decrease of the level of IκB” value in experiment [5] (monocytes, between 6 and 15 minutes post treatment) is listed as “approximately 60%”; in experiment [6] (lymphocytes, between 40 and 45 minutes post treatment), “approximately 40%”. Besides, in experiment [6], the “Akt activation in lymphocytes” value is reported as “not activated”. Besides, the “ERK activation in lymphocytes” value in experiment [6] was “Neither ERK nor S6 were activated”. The “S6 activation in lymphocytes” value in experiment [6] was “Neither ERK nor S6 were activated”.
